According to patent US20250195521A1 (Revolution Medicines, Inc., priority 2020, published 2025):
pEC50, pIC50: −log10 of the molar value. Read-outs that look alike come from different tables or passages of the source.

What was measured:
Type in all cases: cell-based, human
NCI-H358 (K-Ras G12C) = experiment: CellTiter-Glo cell viability assay, H358
Experimental: Note—The following protocol describes a procedure for monitoring cell viability of K-Ras mutant cancer cell lines in response to a compound of the invention. Other RAS isoforms may be employed, though the number of cells to be seeded will vary based on cell line used.
Test compounds (132.5 nL) were directly dispensed into the assay plates containing cells. […] On day 5, assay plates and their contents were equilibrated to room temperature for approximately 30 minutes. […] Luminescence was measured using the PerkinElmer Enspire. Data were normalized by the following: (Sample signal/Avg. DMSO)*100. The data were fit using a four-parameter logistic fit.

AsPC-1 (K-Ras G12D) [1] = experiment: Potency assay: pERK
Procedure, shortened: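 Cells plated overnight, then exposed 4 h at 37 °C to 10-point 3-fold dilutions of compound, in duplicate. pERK read by AlphaLISA SureFire Ultra p-ERK1/2 lysate assay or by In-Cell Western (pERK antibody, DRAQ5 DNA normalisation). IC50 from 4-parameter sigmoidal fit of signal vs log concentration.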

AsPC-1 (K-Ras G12D) [2] = experiment: CellTiter-Glo cell viability assay, AsPC-1; details: read-out: AsPC-1 Cell Viability IC50
Procedure, shortened: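 Steps: compound dispensed into wells holding cells; incubation to day 5; ~30 min room-temperature equilibration; luminescence read; sample signal divided by mean DMSO signal, times 100; four-parameter logistic curve fit.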

[3] = Homo sapiens, NCI-H358, 120 h, read-out: H358 Cell Viability IC50, K-Ras G12C, 5-day treatment
[4] = Homo sapiens, ASPC1, read-out: pERK EC50

SMILES | pIC50 (NCI-H358 (K-Ras G12C); [3]) | pEC50 (AsPC-1 (K-Ras G12D) [1]; [4]) | pIC50 (AsPC-1 (K-Ras G12D) [2]; Homo sapiens, ASPC1, 120 h) | other results
CCn1c(-c2cccnc2[C@H](C)OC)c2c3cc(ccc31)-c1cc(O)cc(c1)C[C@H](NC(=O)[C@H](C(C)C)N(C)C(=O)CN(C)C(=O)[C@@H]1N[C@@H]1C1CC1)C(=O)N1CCC[C@H](N1)C(=O)OCC(C)(C)C2 [Example 133, (2R,3R)-3-cyclopropyl-N-(2-(((2S)-1-(((6^3S,4S)-1^1-ethyl-25-hydroxy-1^2-(2-((S)-1-methoxyethyl)pyridin-3-yl)-10,10-dimethyl-5,7-dioxo-61,62,63,64,65,66-hexahydro-1^1H-8-oxa-1 (5,3)-indola-6 (1,3)-pyridazina-2 (1,3)-benzenacycloundecaphane-4-yl)amino)-3-methyl-1-oxobutan-2-yl) (methyl)amino)-2-oxoethyl)-N-methylaziridine-2-carboxamide] | 7.00 to 8.00 | > 5.30 | 7.00 to 8.00 | 
CCn1c(-c2cccnc2[C@H](C)OC)c2c3cc(ccc31)-c1cc(O)cc(c1)C[C@H](NC(=O)[C@H](C(C)C)N(C)C(=O)CN(C)C(=O)[C@H]1N[C@@H]1C1CC1)C(=O)N1CCC[C@H](N1)C(=O)OCC(C)(C)C2 [Example 135] |  |  | 6.00 to 7.00 | pIC50 (NCI-H358 (K-Ras G12C); read-out: H358 Cell Viability IC50, K-Ras G12C, 5-day treatment): 7.00 to 8.00; pEC50 (AsPC-1 (K-Ras G12D) [1]; read-out: pERK EC50, AsPC-1 KRAS G12D): > 5.30
CCn1c(-c2cccnc2[C@H](C)OC)c2c3cc(ccc31)-c1cc(O)cc(c1)C[C@H](NC(=O)[C@H](C(C)C)N(C)C(=O)CN(C)C(=O)[C@H]1N[C@@H]1C1CC1)C(=O)N1CCC[C@H](N1)C(=O)OCC(C)(C)C2 [Example 136] | > 8.00 | > 5.30 |  | pIC50 (AsPC-1 (K-Ras G12D) [2]; K-Ras G12D, 5-day treatment): 6.00 to 7.00
CCn1c(-c2cccnc2[C@H](C)OC)c2c3cc(ccc31)-c1cc(O)cc(c1)C[C@H](NC(=O)[C@H](C(C)C)N(C)C(=O)CN(C)C(=O)[C@@H]1CN1CCCOC)C(=O)N1CCC[C@H](N1)C(=O)OCC(C)(C)C2 (stereo partly drawn) [Example 137] | > 8.00 | > 5.30 | 6.00 to 7.00 | 
CCn1c(-c2cccnc2[C@H](C)OC)c2c3cc(ccc31)-c1cc(O)cc(c1)C[C@H](NC(=O)[C@H](C(C)C)N(C)C(=O)CNC(=O)[C@@H]1N[C@@H]1C1CC1)C(=O)N1CCC[C@H](N1)C(=O)OCC(C)(C)C2 [Example 141] | 6.00 to 7.00 | > 5.30 | 6.00 to 7.00 | 
CCn1c(-c2cccnc2[C@H](C)OC)c2c3cc(ccc31)-c1cc(O)cc(c1)C[C@H](NC(=O)[C@H](C(C)C)N(C)C(=O)CN(C)C(=O)[C@H]1CN1C(C)C)C(=O)N1CCC[C@H](N1)C(=O)OCC(C)(C)C2 (stereo partly drawn) [Example 142] | > 8.00 | > 5.30 | 6.00 to 7.00 | 
CCC(C)N(C)C(=O)c1cncc(-c2c3c4cc(ccc4n2CC)-c2cc(O)cc(c2)C[C@H](NC(=O)[C@H](C(C)C)N(C)C(=O)CN(C)C(=O)[C@H]2CN2)C(=O)N2CCC[C@H](N2)C(=O)OCC(C)(C)C3)c1 (stereo partly drawn) [Example 144] | 7.00 to 8.00 | > 5.30 | 6.00 to 7.00 | 
CCn1c(-c2cccnc2[C@H](C)OC)c2c3cc(ccc31)-c1cc(O)cc(c1)C[C@H](NC(=O)[C@H](C(C)C)N(C)C(=O)CN(C)C(=O)[C@@H]1CN1C(C)C)C(=O)N1CCC[C@H](N1)C(=O)OCC(C)(C)C2 (stereo partly drawn) [Example 148] | > 8.00 | > 5.30 | 6.00 to 7.00 | 
CCn1c(-c2cccnc2[C@H](C)OC)c2c3cc(ccc31)-c1cc(O)cc(c1)C[C@H](NC(=O)[C@H](C(C)C)N(C)C(=O)CN(C)C(=O)[C@@H]1CN1)C(=O)N1CCC[C@H](N1)C(=O)OCC(C)(C)C2 [Example 150] | > 8.00 | > 5.30 | 6.00 to 7.00 | 
CCn1c(-c2cccnc2[C@H](C)OC)c2c3cc(ccc31)-c1cc(O)cc(c1)C[C@H](NC(=O)[C@H](C(C)C)N(C)C(=O)CN(C)C(=O)[C@H]1CN1Cc1ccccc1F)C(=O)N1CCC[C@H](N1)C(=O)OCC(C)(C)C2 (stereo partly drawn) [Example 155] | > 8.00 | > 5.30 | 6.00 to 7.00 | 
CCn1c(-c2cccnc2[C@H](C)OC)c2c3cc(ccc31)-c1cc(O)cc(c1)C[C@H](NC(=O)[C@H](C(C)C)N(C)C(=O)CN(C)C(=O)[C@H]1CN1Cc1ccccc1CO)C(=O)N1CCC[C@H](N1)C(=O)OCC(C)(C)C2 (stereo partly drawn) [Example 156] | > 8.00 | > 5.30 | 6.00 to 7.00 | 
CCn1c(-c2cccnc2[C@H](C)OC)c2c3cc(ccc31)-c1cc(O)cc(c1)C[C@H](NC(=O)[C@H](C(C)C)N(C)C(=O)CN(C)C(=O)[C@H]1CN1CCOC)C(=O)N1CCC[C@H](N1)C(=O)OCC(C)(C)C2 (stereo partly drawn) [Example 159] | > 8.00 | > 5.30 | 6.00 to 7.00 | 
CCn1c(-c2cccnc2[C@H](C)OC)c2c3cc(ccc31)-c1cc(O)cc(c1)C[C@H](NC(=O)[C@H](C(C)C)N(C)C(=O)CN(C)C(=O)[C@@H]1CN1CCOC)C(=O)N1CCC[C@H](N1)C(=O)OCC(C)(C)C2 (stereo partly drawn) [Example 160] | > 8.00 | > 5.30 | 6.00 to 7.00 | 
CCn1c(-c2cccnc2[C@H](C)OC)c2c3cc(ccc31)-c1cc(O)cc(c1)C[C@H](NC(=O)[C@H](C(C)C)N(C)C(=O)CN(C)C(=O)[C@H]1CN1CCCOC)C(=O)N1CCC[C@H](N1)C(=O)OCC(C)(C)C2 (stereo partly drawn) [Example 201] | > 8.00 | > 5.30 | 6.00 to 7.00 | 
CCn1c(-c2cc(N3CCN(C)CC3)cnc2[C@H](C)OC)c2c3cc(ccc31)-c1cc(O)cc(c1)C[C@H](NC(=O)[C@H](C1CCCC1)N(C)C(=O)CN(C)C(=O)[C@H]1CN1)C(=O)N1CCC[C@H](N1)C(=O)OCC(C)(C)C2 [Example 209, (2R)—N-(2-(((1S)-1-cyclopentyl-2-(((6^3S,4S)-1^1-ethyl-25-hydroxy-12-(2-((S)-1-methoxyethyl)-5-(4-methylpiperazin-1-yl)pyridin-3-yl)-10,10-dimethyl-5,7-dioxo-6^1,6^2,6^3,6^4,6^5,6^6-hexahydro-1^1H-8-oxa-1 (5,3)-indola-6 (1,3)-pyridazina-2 (1,3)-benzenacycloundecaphane-4-yl)amino)-2-oxoethyl) (methyl)amino)-2-oxoethyl)-N-methylaziridine-2-carboxamide] | > 8.00 | > 5.30 | > 8.00 | 
CCn1c(-c2cccnc2[C@H](C)OC)c2c3cc(ccc31)-c1cc(O)cc(c1)C[C@H](NC(=O)[C@H](C1CCCC1)N1CC[C@]3(CCN(C(=O)[C@@H]4N[C@@H]4C4CC4)C3)C1=O)C(=O)N1CCC[C@H](N1)C(=O)OCC(C)(C)C2 [Example 214, (2S)-2-cyclopentyl-2-((S)-7-((2R,3R)-3-cyclopropylaziridine-2-carbonyl)-1-oxo-2,7-diazaspiro[4.4]nonan-2-yl)-N-((6^3S,4S)-1^1-ethyl-25-hydroxy-1^2-(2-((S)-1-methoxyethyl)pyridin-3-yl)-10,10-dimethyl-5,7-dioxo-6^1,6^2,6^3,6^4,6^5,6^6-hexahydro-1^1H-8-oxa-1 (5,3)-indola-6 (1,3)-pyridazina-2 (1,3)-benzenacycloundecaphane-4-yl) acetamide] |  |  |  | pIC50 (NCI-H358 (K-Ras G12C); Homo sapiens, NCI-H358, 120 h, K-Ras G12C, 5-day treatment, read-out: H358 Cell Viability IC50): 7.00 to 8.00; pEC50 (AsPC-1 (K-Ras G12D) [1]; Homo sapiens, ASPC1, AsPC-1 KRAS G12D, read-out: pERK EC50): > 5.30; pIC50 (AsPC-1 (K-Ras G12D) [2]; Homo sapiens, ASPC1, 120 h, K-Ras G12D, 5-day treatment): 7.00 to 8.00
CCn1c(-c2cccnc2[C@H](C)OC)c2c3cc(ccc31)-c1cc(O)cc(c1)C[C@H](NC(=O)[C@H](C(C)C)N(C)C(=O)CN(C)C(=O)[C@@]1(C)CN1)C(=O)N1CCC[C@H](N1)C(=O)OCC(C)(C)C2 [Example 256] | 7.00 to 8.00 | > 5.30 | 6.00 to 7.00 | 
CCn1c(-c2cccnc2[C@H](C)OC)c2c3cc(ccc31)-c1cc(O)cc(c1)C[C@H](NC(=O)[C@H](C(C)C)N(C)C(=O)CN(C)C(=O)[C@]1(C)CN1)C(=O)N1CCC[C@H](N1)C(=O)OCC(C)(C)C2 [Example 257] | 7.00 to 8.00 | > 5.30 | 6.00 to 7.00 | 
CCn1c(-c2cccnc2[C@H](C)OC)c2c3cc(ccc31)-c1cc(O)cc(c1)C[C@H](NC(=O)[C@H](C(C)C)N(C)C(=O)CN(C)C(=O)[C@@H]1N[C@@H]1C(F)(F)F)C(=O)N1CCC[C@H](N1)C(=O)OCC(C)(C)C2 [Example 258] | 7.00 to 8.00 | > 5.30 | 6.00 to 7.00 | 
CCn1c(-c2cccnc2[C@H](C)OC)c2c3cc(ccc31)-c1cc(O)cc(c1)C[C@H](NC(=O)[C@H](C(C)C)N(C)C(=O)CN(C)C(=O)[C@H]1N[C@H]1C(F)(F)F)C(=O)N1CCC[C@H](N1)C(=O)OCC(C)(C)C2 [Example 259] | 7.00 to 8.00 | > 5.30 | 6.00 to 7.00 | 
